Measured values from paper PMC3125149, “SCYX-7158, an Orally-Active Benzoxaborole for the Treatment of Stage 2 Human African Trypanosomiasis” (PLoS Neglected Tropical Diseases, 2011).
≈ marks a conversion by molar mass, not a printed value. Where two headings read alike, the source gives them in different places.

What was measured:
[1] = molecular target: T1, MDCKII-hMDR1 cells (P-glycoprotein) (Homo sapiens, UniProt P08183); assay: MDCKII-hMDR1 monolayer permeability and P-gp efflux; assay type: in vitro ADME
T1 construct: expressed in transfected cells; host or cells: MDCKII (canine kidney) cells, provided by P. Borst
Description: (§1) T. b. brucei was cultured in complete HMI-9 medium,[20] which contains 10% fetal bovine serum (FBS) (Invitrogen, Carlsbad, CA), 10% Serum Plus medium (SAFC Biosciences, Lenexa, KS), and 100 units/mL penicillin and 0.1 mg/mL streptomycin. The trypanosomes were propagated in T-25 vented cap flasks (Corning Inc., Lowell, MA) at 37°C and 5% CO2 with humidity. To ensure log growth phase, trypanosomes were sub-cultured at appropriate dilutions (typically 1∶100) every 2–3 days in fresh HMI-9 medium. T. b. rhodesiense parasites were grown in MEM medium with Earle's salts supplemented with 15% horse serum. For T. b. gambiense, the MEM medium was supplemented with 5% heat-inactivated fetal calf serum (FCS) and 15% human serum.[21] L929 mouse fibroblast cells (ATCC CCL1, American Type Culture Collection, Rockville, MD) were used to determine parasite versus mammalian cell selectivity. Cells were cultured in Dulbecco's Modified Eagle Medium (DMEM), supplemented with 10% FBS, L-glutamine and 100 units/mL penicillin and 0.1 mg/mL streptomycin. MDCKII-hMDR1 cells were generously provided by P. Borst at the Netherlands Kancer Institute. Cells were cultured in DMEM with Glutamax, 10% (v/v) FBS, and 100 units/mL penicillin and 0.1 mg/mL streptomycin. Cell monolayers were fed with cell culture media 24 h after seeding and used for permeability studies 3 days later.
(§2) The propensity of the compound to cross the blood-brain barrier was examined using an in vitro MDCKII-hMDR1 transwell assay.[24] MDCKII-hMDR1 cells were seeded at density of 3×10^5 cells per well onto microporous polycarbonate membranes in 12 well Costar Transwell plates (Corning Inc., Lowell, MA). The cells were used for permeability studies 3 days later. Trans-epithelial resistance (TEER) was measured for each insert to ensure the integrity of the monolayer (acceptable TEER >50 Ωcm^2).
(§3) The permeability and propensity for P-gp-mediated efflux was evaluated by adding each compound at a concentration of 3 µM, in the presence or absence of 2 µM GF120918, to the apical compartment. Competency of the P-gp efflux transporter was confirmed by assay of propranolol (non-substrate) and amprenavir (substrate). Cell monolayers were incubated in triplicate with shaking (160 rpm) at 37°C in a 5% CO2-enriched humidified atmosphere for 1 h. Samples were removed from the apical and basolateral compartments after incubation and assayed for test compound concentrations by LC-MS/MS. Values for mass balance, PappA→B, PappA→B+GF918, and absorption quotient (AQ) were calculated for each compound.[25], [26], [27] Acceptance criterion for mass balance was 70–120%.

[2] = molecular target: T2, P-glycoprotein (human MDR1) (Homo sapiens, UniProt P08183); assay: as above; assay type: in vitro ADME; settings: dog
T2 construct: expressed in transfected cells; host or cells: MDCKII (canine kidney) cells, provided by P. Borst
Description: as §1, §2, §3

[3] = system: T. b. gambiense ITMAP 141267; assay: In vitro compound sensitivity assay (resazurin viability); assay type: cell-based; settings: Trypanosoma brucei, 72 h incubation, n = 1
Description: as §1
(§4) Compounds to be tested were serially diluted in DMSO and added to 96-well plates to give final concentrations ranging from 5 to 0.01 µg/mL. T. b. brucei parasites in the log phase of growth were diluted in HMI-9 media and added to each well for a final concentration of 1×10^4 parasites per well. For the sensitivity assays using T. b. rhodesiense and T. b. gambiense, pararasites were cultured in MEM supplemented with Baltz components (8), diluted in the aforementioned culture media, and added to each well at a density of 1×10^3 cells/well. The final concentration of DMSO was 0.5% and the total volume was 100 µL/well. After a 72 h incubation, resazurin (Sigma-Aldrich, St. Louis, MO) was added to each well [20 µL of 25 mg/100 mL stock in phosphate buffered saline (PBS)] and incubated for an additional 4–6 h.[22] To assess cell viability, fluorescence was quantified using an EnVision Multilabel Plate Reader (Perkin Elmer, Waltham, MA) at an excitation wavelength of 530 nm and emission of 590 nm. Triplicate data points were averaged to generate sigmoidal dose-response curves and determine IC50 values using XLfit curve fitting software from IDBS (Guilford, UK). The IC50 is defined as the amount of compound required to decrease parasite or cell viability by 50% compared to those grown in the absence of the test compound. […]

T. b. gambiense 40R = assay: as above; assay type: cell-based; settings: Trypanosoma brucei, 72 h
Description: as §1, §4

T. b. gambiense DAL 1402 = assay: as above; assay type: cell-based; settings: Trypanosoma brucei, 72 h incubation, n = 1
Description: as §1, §4

T. b. gambiense Drani = assay: as above; assay type: cell-based; settings: Trypanosoma brucei, 72 h incubation, n = 1
Description: as §1, §4

T1 sequence (P08183 whole entry): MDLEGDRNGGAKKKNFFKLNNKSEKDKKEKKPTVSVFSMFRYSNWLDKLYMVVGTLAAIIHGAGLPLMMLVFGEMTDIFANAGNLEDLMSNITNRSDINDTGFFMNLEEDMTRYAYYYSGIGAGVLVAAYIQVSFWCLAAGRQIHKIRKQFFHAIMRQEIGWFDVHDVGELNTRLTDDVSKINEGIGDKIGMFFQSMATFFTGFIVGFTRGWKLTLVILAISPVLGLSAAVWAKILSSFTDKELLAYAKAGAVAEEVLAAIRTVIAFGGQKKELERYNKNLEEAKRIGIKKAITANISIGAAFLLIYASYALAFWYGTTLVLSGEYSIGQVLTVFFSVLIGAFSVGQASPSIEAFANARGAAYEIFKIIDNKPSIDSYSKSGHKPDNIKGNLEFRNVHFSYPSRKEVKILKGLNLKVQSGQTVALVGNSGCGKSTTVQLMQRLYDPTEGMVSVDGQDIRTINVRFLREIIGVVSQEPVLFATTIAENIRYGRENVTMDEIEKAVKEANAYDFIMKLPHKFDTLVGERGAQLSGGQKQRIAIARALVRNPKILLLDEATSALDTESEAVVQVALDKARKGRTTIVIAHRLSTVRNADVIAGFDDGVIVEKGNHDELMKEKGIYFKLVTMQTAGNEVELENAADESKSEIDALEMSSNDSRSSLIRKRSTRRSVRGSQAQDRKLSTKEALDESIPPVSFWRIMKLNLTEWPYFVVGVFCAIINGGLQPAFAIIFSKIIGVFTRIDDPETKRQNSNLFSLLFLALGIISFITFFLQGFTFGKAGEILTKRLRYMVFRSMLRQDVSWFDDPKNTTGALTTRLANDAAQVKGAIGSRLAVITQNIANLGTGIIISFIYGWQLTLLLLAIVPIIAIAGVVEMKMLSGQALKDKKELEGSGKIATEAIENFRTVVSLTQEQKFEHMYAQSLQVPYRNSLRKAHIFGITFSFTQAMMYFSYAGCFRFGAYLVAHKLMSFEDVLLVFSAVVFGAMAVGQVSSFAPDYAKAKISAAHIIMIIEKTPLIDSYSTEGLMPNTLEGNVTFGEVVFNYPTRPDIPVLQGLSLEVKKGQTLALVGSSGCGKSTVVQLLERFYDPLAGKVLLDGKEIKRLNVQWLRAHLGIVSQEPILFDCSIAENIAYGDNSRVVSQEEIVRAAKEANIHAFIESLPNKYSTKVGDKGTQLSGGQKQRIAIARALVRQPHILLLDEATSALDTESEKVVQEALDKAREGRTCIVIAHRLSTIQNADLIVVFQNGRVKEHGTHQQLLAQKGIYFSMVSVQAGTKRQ
T2 sequence (P08183 whole entry): as above

Question: CC1(C)OB(O)c2cc(NC(=O)c3ccc(F)cc3C(F)(F)F)ccc21 [SCYX-7158] was tested. Which “AQ (absorption quotient)” value ([1]; calculated from Papp with and without GF120918) did it give?
Answer: Its value is 0.09.

Question: And the P-gp substrate status ([1]; from AQ)?
Answer: The P-gp substrate status was “not a P-gp substrate”.

Question: What about the Papp A→B at 1 h, 3 µM ([2]; MDCK-MDR1, with GF120918 2 µM, in presence of P-gp inhibitor GF120918 (2 µM), read-out: Papp A→B + GF120918) of the same compound?
Answer: Its Papp A→B at 1 h, 3 µM is 85.3 ×10⁻⁶ cm/s.

Question: And the Papp A→B at 1 h, 3 µM ([2]; MDCK-MDR1, apical to basolateral, 3 µM (1.1 µg/mL), 1 h, read-out: Papp A→B)?
Answer: Its Papp A→B at 1 h, 3 µM is 77.6 ×10⁻⁶ cm/s.

Question: What about the IC50 [3] of the same compound?
Answer: Its IC50 is 0.092 µg/mL (≈ 0.251 µM).

Question: And the IC50 (T. b. gambiense 40R)?
Answer: The IC50 was 0.363 µg/mL (≈ 0.989 µM).

Question: What about the IC50 (T. b. gambiense DAL 1402) of the same compound?
Answer: The IC50 was 0.065 µg/mL (≈ 0.177 µM).

Question: What about the IC50 (T. b. gambiense Drani) of the same compound?
Answer: Its IC50 is 0.129 µg/mL (≈ 0.351 µM).
